Data taken from PMC11845477, “Exploring the principles behind antibiotics with limited resistance” (Nature Communications, 2025).

Assays:
[1] = tested on: P. aeruginosa ATCC BAA-3107 (SEN) and P. aeruginosa LESB58 (MDR); test: microbe, parasite or virus in culture; assay type: cell-based, Pseudomonas aeruginosa; settings: across three biological replicates
Summary of the method: (§1)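 Cells at 5 × 10^5 per mL in cation-adjusted MHB 2 across 11 to 16-step dilutions, 2 replicates. Relative MIC expressed as MICevolved/MICancestor.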

[2] = tested on: K. pneumoniae ATCC 10031 (SEN) and K. pneumoniae ATCC 700603 (MDR); test: microbe, parasite or virus in culture; assay type: cell-based, Klebsiella pneumoniae; settings: for MIC: across three biological replicates
Summary of the method: as §1

[3] = tested on: A. baumannii ATCC 17978 (SEN) and A. baumannii ATCC BAA-1605 (MDR); test: microbe, parasite or virus in culture; assay type: cell-based, Acinetobacter baumannii; settings: for MIC: across three biological replicates
Summary of the method: as §1

[4] = tested on: K. pneumoniae ATCC 10031 (SEN) and K. pneumoniae ATCC 700603 (MDR); test: Adaptive laboratory evolution (ALE), relative MIC of evolved lines; assay type: cell-based, Klebsiella pneumoniae
Summary of the method: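 Ten parallel populations per antibiotic–ancestor pair were evolved in MHB at 37 °C, starting near 50% growth-inhibiting drug. Every 72 h they were passaged into 0.5–2.5× increasing concentrations, keeping the highest-drug well with OD600 > 0.2.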

[5] = Klebsiella pneumoniae ATCC 10031 (KP-SEN), ancestor strain, sheet fig 2a
[6] = KP-SEN (Klebsiella pneumoniae ATCC 10031), evolved line 2
[7] = KP-SEN (Klebsiella pneumoniae ATCC 10031), evolved line 6
[8] = KP-SEN (Klebsiella pneumoniae ATCC 10031), evolved line 8
[9] = KP-SEN (Klebsiella pneumoniae ATCC 10031), evolved line 10
[10] = Klebsiella pneumoniae ATCC 10031 (KP-SEN), evolved line 1
[11] = Klebsiella pneumoniae ATCC 10031 (KP-SEN), evolved line 2
[12] = Klebsiella pneumoniae ATCC 10031 (KP-SEN), evolved line 3
[13] = Klebsiella pneumoniae ATCC 10031 (KP-SEN), evolved line 4
[14] = Klebsiella pneumoniae ATCC 10031 (KP-SEN), evolved line 5
[15] = Klebsiella pneumoniae ATCC 10031 (KP-SEN), evolved line 6
[16] = Klebsiella pneumoniae ATCC 10031 (KP-SEN), evolved line 8
[17] = Klebsiella pneumoniae ATCC 10031 (KP-SEN), evolved line 10

C[C@@H](O)[C@H]1C(=O)N2C(C(=O)O)=C(S[C@H]3CC[S@@+]([O-])C3)S[C@H]12 [Sulopenem]
16 µg/mL: MIC ([1]; Pseudomonas aeruginosa ATCC BAA-3107 (PA-SEN))
0.25 µg/mL: MIC of evolved line ([4]; KP-SEN (K. pneumoniae ATCC 10031), evolved line 3 of the given antibiotic)
128 µg/mL: MIC of evolved line ([4]; KP-MDR (K. pneumoniae ATCC 700603), evolved line 1 of the given antibiotic) | MIC of evolved line ([4]; KP-MDR (K. pneumoniae ATCC 700603), evolved line 3 of the given antibiotic) | MIC of evolved line ([4]; KP-MDR (K. pneumoniae ATCC 700603), evolved line 4 of the given antibiotic) | MIC of evolved line ([4]; KP-MDR (K. pneumoniae ATCC 700603), evolved line 5 of the given antibiotic) | MIC of evolved line ([4]; KP-MDR (K. pneumoniae ATCC 700603), evolved line 8 of the given antibiotic) | MIC of evolved line ([4]; KP-MDR (K. pneumoniae ATCC 700603), evolved line 9 of the given antibiotic) | MIC of evolved line ([4]; KP-MDR (K. pneumoniae ATCC 700603), evolved line 10 of the given antibiotic)
>32 µg/mL: MIC ([1]; Pseudomonas aeruginosa LESB 58 (PA-MDR))
8: Relative MIC ([4]; KP-SEN (K. pneumoniae ATCC 10031), evolved line 3 vs ancestor) | Relative MIC [4, 12]
2.408 log10: Relative MIC (log10) ([4]; KP-MDR (Klebsiella pneumoniae ATCC 700603), evolved line 1) | Relative MIC (log10) ([4]; KP-MDR (Klebsiella pneumoniae ATCC 700603), evolved line 3) | Relative MIC (log10) ([4]; KP-MDR (Klebsiella pneumoniae ATCC 700603), evolved line 4) | Relative MIC (log10) ([4]; KP-MDR (Klebsiella pneumoniae ATCC 700603), evolved line 8) | Relative MIC (log10) ([4]; KP-MDR (Klebsiella pneumoniae ATCC 700603), evolved line 9)
1.505 log10: Relative MIC (log10) ([4]; KP-SEN (Klebsiella pneumoniae ATCC 10031), evolved line 1) | Relative MIC (log10) [4, 6] | Relative MIC (log10) [4, 7] | Relative MIC (log10) [4, 8] | Relative MIC (log10) [4, 9]
256: Relative MIC ([4]; KP-MDR (K. pneumoniae ATCC 700603), evolved line 1 vs ancestor) | Relative MIC ([4]; KP-MDR (K. pneumoniae ATCC 700603), evolved line 3 vs ancestor) | Relative MIC ([4]; KP-MDR (K. pneumoniae ATCC 700603), evolved line 4 vs ancestor) | Relative MIC ([4]; KP-MDR (K. pneumoniae ATCC 700603), evolved line 5 vs ancestor) | Relative MIC ([4]; KP-MDR (K. pneumoniae ATCC 700603), evolved line 8 vs ancestor) | Relative MIC ([4]; KP-MDR (K. pneumoniae ATCC 700603), evolved line 9 vs ancestor) | Relative MIC ([4]; KP-MDR (K. pneumoniae ATCC 700603), evolved line 10 vs ancestor) | Relative MIC ([4]; Klebsiella pneumoniae ATCC 700603 (KP-MDR), evolved line 1) | Relative MIC ([4]; Klebsiella pneumoniae ATCC 700603 (KP-MDR), evolved line 3) | Relative MIC ([4]; Klebsiella pneumoniae ATCC 700603 (KP-MDR), evolved line 4) | Relative MIC ([4]; Klebsiella pneumoniae ATCC 700603 (KP-MDR), evolved line 5) | Relative MIC ([4]; Klebsiella pneumoniae ATCC 700603 (KP-MDR), evolved line 8) | Relative MIC ([4]; Klebsiella pneumoniae ATCC 700603 (KP-MDR), evolved line 9) | Relative MIC ([4]; Klebsiella pneumoniae ATCC 700603 (KP-MDR), evolved line 10)
0.03125 µg/mL: MIC ([2]; Klebsiella pneumoniae ATCC 10031 (KP-SEN))
0.5 µg/mL: MIC of ancestor ([2]; Klebsiella pneumoniae ATCC 700603 (KP-MDR), ancestor strain, sheet fig 2a) | MIC ([2]; Klebsiella pneumoniae ATCC 700603 (KP-MDR)) | MIC of ancestor ([2]; ancestor KP-MDR (Klebsiella pneumoniae ATCC 700603)) | MIC of evolved line ([4]; KP-SEN (K. pneumoniae ATCC 10031), evolved line 4 of the given antibiotic) | MIC of evolved line ([4]; KP-SEN (K. pneumoniae ATCC 10031), evolved line 5 of the given antibiotic) | MIC of evolved line ([4]; KP-SEN (K. pneumoniae ATCC 10031), evolved line 9 of the given antibiotic)
32 µg/mL: MIC ([3]; Acinetobacter baumannii ATCC BAA-1605 (AB-MDR))
16: Relative MIC ([4]; KP-SEN (K. pneumoniae ATCC 10031), evolved line 4 vs ancestor) | Relative MIC ([4]; KP-SEN (K. pneumoniae ATCC 10031), evolved line 5 vs ancestor) | Relative MIC ([4]; KP-SEN (K. pneumoniae ATCC 10031), evolved line 9 vs ancestor) | Relative MIC [4, 13] | Relative MIC [4, 14] | Relative MIC ([4]; Klebsiella pneumoniae ATCC 10031 (KP-SEN), evolved line 9)
1 µg/mL: MIC of ancestor ([3]; Acinetobacter baumannii ATCC 17978 (AB-SEN), ancestor strain, sheet fig 2a) | MIC ([3]; Acinetobacter baumannii ATCC 17978 (AB-SEN)) | MIC of ancestor ([3]; ancestor AB-SEN (Acinetobacter baumannii ATCC 17978)) | MIC of evolved line ([4]; KP-SEN (K. pneumoniae ATCC 10031), evolved line 1 of the given antibiotic) | MIC of evolved line ([4]; KP-SEN (K. pneumoniae ATCC 10031), evolved line 2 of the given antibiotic) | MIC of evolved line ([4]; KP-SEN (K. pneumoniae ATCC 10031), evolved line 6 of the given antibiotic) | MIC of evolved line ([4]; KP-SEN (K. pneumoniae ATCC 10031), evolved line 8 of the given antibiotic) | MIC of evolved line ([4]; KP-SEN (K. pneumoniae ATCC 10031), evolved line 10 of the given antibiotic)
0.0312 µg/mL: MIC of ancestor [2, 5] | MIC of ancestor ([2]; ancestor KP-SEN (Klebsiella pneumoniae ATCC 10031))
32: Relative MIC ([4]; KP-SEN (K. pneumoniae ATCC 10031), evolved line 1 vs ancestor) | Relative MIC ([4]; KP-SEN (K. pneumoniae ATCC 10031), evolved line 2 vs ancestor) | Relative MIC ([4]; KP-SEN (K. pneumoniae ATCC 10031), evolved line 6 vs ancestor) | Relative MIC ([4]; KP-SEN (K. pneumoniae ATCC 10031), evolved line 8 vs ancestor) | Relative MIC ([4]; KP-SEN (K. pneumoniae ATCC 10031), evolved line 10 vs ancestor) | Relative MIC [4, 10] | Relative MIC [4, 11] | Relative MIC [4, 15] | Relative MIC [4, 16] | Relative MIC [4, 17]

C[C@@H]1CN2c3c(cc4c(N5C(=O)OC[C@@H]5C)noc4c3F)CC3(C(=O)NC(=O)NC3=O)[C@H]2[C@H](C)O1 [Zoliflodacin]
512: Relative MIC ([4]; KP-SEN (ATCC 10031), evolved line 3, evolved vs ancestor) | Relative MIC [4, 12]
3.0103 log10: Relative MIC (log10) [4, 6] | Relative MIC (log10) ([4]; KP-SEN (Klebsiella pneumoniae ATCC 10031), evolved line 4) | Relative MIC (log10) [4, 7] | Relative MIC (log10) [4, 8] | Relative MIC (log10) [4, 9]
0.125 µg/mL: MIC of ancestor ([2]; K. pneumoniae ATCC 10031 (KP-SEN), ancestor strain) | MIC of ancestor [2, 5] | MIC ([2]; Klebsiella pneumoniae, Klebsiella pneumoniae ATCC 10031 (KP-SEN))
16 µg/mL: MIC ([3]; Acinetobacter baumannii, Acinetobacter baumannii ATCC BAA-1605 (AB-MDR))
8 µg/mL: MIC ([1]; Pseudomonas aeruginosa, ATCCBAA3107, Pseudomonas aeruginosa ATCC BAA-3107 (PA-SEN)) | MIC ([3]; Acinetobacter baumannii, Acinetobacter baumannii ATCC 17978 (AB-SEN))
1024: Relative MIC ([4]; KP-SEN (ATCC 10031), evolved line 1, evolved vs ancestor) | Relative MIC ([4]; KP-SEN (ATCC 10031), evolved line 2, evolved vs ancestor) | Relative MIC ([4]; KP-SEN (ATCC 10031), evolved line 4, evolved vs ancestor) | Relative MIC ([4]; KP-SEN (ATCC 10031), evolved line 5, evolved vs ancestor) | Relative MIC ([4]; KP-SEN (ATCC 10031), evolved line 6, evolved vs ancestor) | Relative MIC ([4]; KP-SEN (ATCC 10031), evolved line 7, evolved vs ancestor) | Relative MIC ([4]; KP-SEN (ATCC 10031), evolved line 8, evolved vs ancestor) | Relative MIC ([4]; KP-SEN (ATCC 10031), evolved line 10, evolved vs ancestor) | Relative MIC [4, 10] | Relative MIC [4, 11] | Relative MIC [4, 13] | Relative MIC [4, 14] | Relative MIC [4, 15] | Relative MIC ([4]; Klebsiella pneumoniae ATCC 10031 (KP-SEN), evolved line 7) | Relative MIC [4, 16] | Relative MIC [4, 17]
> 32 µg/mL: MIC ([1]; Pseudomonas aeruginosa, ATCCBAA3107, Pseudomonas aeruginosa LESB 58 (PA-MDR)) | MIC ([2]; Klebsiella pneumoniae, Klebsiella pneumoniae ATCC 700603 (KP-MDR))
